Experimental findings from EP0507256A2, “Tyrosine phosphorylation in protozoa” (Bristol-Myers Squibb Company, priority 1991, dated 1992) are described below.

The subject of test [1] is TREU 667 procyclic forms. The test is described as follows: Anti-p-tyr immunoblot (Western) analysis of protein tyrosine phosphorylation after orthovanadate treatment. The test is classed as cell-based, T. brucei. Also on record: level of protein tyrosine phosphorylation of specific substrates, particularly ptp40 and ptp42: dose or concentration left out as unconfirmed. The method, then:
In the drawings: • FIGURE 1 illustrates the specificity of reactivity with anti-p-tyr antibodies. Lysate from the monomorphic trypanosome strain EATRO 164, clone IHRI 1, procyclic forms (10⁷ cells) was loaded per lane on a 10% sodium dodecyl sulfate polyacrylamide gel electrophoresis (SDS-PAGE) gel. Proteins were transferred to polyvinylidene difluoride membranes, incubated with anti-p-tyr antibodies, and followed by treatment with ¹²⁵I-protein A. Panel A: 0.25 µg ml⁻¹ anti-p-tyr antibodies. Panel B: 1 µg ml⁻¹ anti-p-tyr antibodies, plus 40 mM phenyl phosphate. Molecular weight markers are indicated. Lanes 1 and 2 differ only in the concentration of orthovanadate used during cell processing. • FIGURE 2 illustrates immunoprecipitation and phosphoamino acid analysis. Panel 2A: Western analysis of anti-p-tyr immunoprecipitates. Immunoreactive proteins were enriched by immunoprecipitation as described herein. Each lane was loaded with material corresponding to the same amount of cell lysate. Lanes: 1) total cell lysate; 2) lysate cleared of proteins reactive with anti-p-tyr; 3) eluate from anti-p-tyr immunoprecipitation. Panel 2B: Two-dimensional phosphoamino acid analysis. Procyclic forms were metabolically labelled with [³²P] orthophosphate, and proteins reactive with the anti-p-tyr antiserum were enriched by immunoprecipitation as described above. The proteins were hydrolyzed and phosphoamino acids separated by two-dimensional electrophoresis. […] Lysate of 10⁷ cells from each stage of the life cycle was loaded. TREU 667 is a pleiomorphic strain; EATRO 164 is a monomorphic strain. Independent samples produced by difluoromethylornithine (DFMO) treatment are indicated (D). PF 100% mid-log phase procyclic culture forms. SL Slender bloodforms (EATRO, 100% slender; TREU 75% slender). INT Intermediate bloodforms (approximately 20% slender, 60% intermediate, 20% late intermediate-stumpy). ST Stumpy bloodforms (>60% late intermediate-stumpy, the remainder intermediate). • FIGURE 4 illustrates the solubility analysis of immunoreactive proteins. TREU 667 procyclic form cells were lysed in buffer containing various detergents as indicated. Lanes: 1) 1% NP-40 + 0.25% deoxycholate; 2) 1% NP-40; 3) 2% SDS; 4) freeze/thaw lysis. Solubilized proteins (S), insoluble pellets (P), total lysate (T). • FIGURE 5 illustrates the effect of orthovanadate on cell growth. […] Growth of the parasites was monitored by measuring the optical density at 600 nm over ranges which were previously established to be linearly related to cell density. • FIGURE 6 illustrates the effect of orthovanadate on protein phosphorylation and tyrosine phosphorylation in TREU 667 procyclic forms. […] The cells were rinsed three times and an aliquot equivalent to 2.3 x 10⁵ cells was analyzed by SDS-PAGE and autoradiography. […]
On the technique in general: Immunoblotting shows a protein as a band on a membrane.

The subject of a further test is T. brucei cells. The test is described as follows: Tyrosine phosphorylation with tyrosine kinase inhibitors in the presence of orthovanadate. The test is classed as cell-based. As to conditions: in the presence of the tyrosine phosphatase inhibitor orthovanadate. The source says: Many inhibitors of mammalian tyrosine kinase have been investigated by the present inventors to determine if tyrosine phosphorylation is reduced in the tested organisms.

The subject of test [2] is TREU 667 procyclic forms. In words: SDS-PAGE analysis of proteins of cells metabolically labelled with [32P]-orthophosphate. The class given is cell-based, T. brucei. Particulars: 1.5 µM orthovanadate, started one hour before overnight labelling (FIGURE 6C). The method, then: (§1) In the drawings: • FIGURE 1 illustrates the specificity of reactivity with anti-p-tyr antibodies. Lysate from the monomorphic trypanosome strain EATRO 164, clone IHRI 1, procyclic forms (10⁷ cells) was loaded per lane on a 10% sodium dodecyl sulfate polyacrylamide gel electrophoresis (SDS-PAGE) gel. Proteins were transferred to polyvinylidene difluoride membranes, incubated with anti-p-tyr antibodies, and followed by treatment with ¹²⁵I-protein A. Panel A: 0.25 µg ml⁻¹ anti-p-tyr antibodies. Panel B: 1 µg ml⁻¹ anti-p-tyr antibodies, plus 40 mM phenyl phosphate. Molecular weight markers are indicated. Lanes 1 and 2 differ only in the concentration of orthovanadate used during cell processing. • FIGURE 2 illustrates immunoprecipitation and phosphoamino acid analysis. Panel 2A: Western analysis of anti-p-tyr immunoprecipitates. Immunoreactive proteins were enriched by immunoprecipitation as described herein. […] Growth of the parasites was monitored by measuring the optical density at 600 nm over ranges which were previously established to be linearly related to cell density. • FIGURE 6 illustrates the effect of orthovanadate on protein phosphorylation and tyrosine phosphorylation in TREU 667 procyclic forms. […] The cells were rinsed three times and an aliquot equivalent to 2.3 x 10⁵ cells was analyzed by SDS-PAGE and autoradiography. […]

Test [3] concerns TREU 667 procyclic form cells. The test is described as follows: Effect of orthovanadate on cell growth (optical density at 600 nm). The class given is cell-based, T. brucei. The method, then: as §1

Turning to `C[C@@H]1C[C@@H]([C@H](O)CC2CC(=O)NC(=O)C2)C(=O)[C@@H](C)C1` [cycloheximide], the “effect of cycloheximide on increased tyrosine phosphorylation mediated by orthovanadate” value in the test with TREU 667 procyclic forms [1] is “does not prevent increased tyrosine phosphorylation”.
With `O=c1c(-c2ccc(O)cc2)coc2cc(O)cc(O)c12` [genestin], the “tyrosine phosphorylation in T. brucei cells” value in the test on T. brucei cells was “decreased tyrosine phosphorylation”.
Take `[O]=[V]([O-])([O-])[O-]` [orthovanadate]: in the test on TREU 667 procyclic forms [2], the “pattern of 32P-labelled proteins observed after SDS-PAGE” value is “the same in control and treated cells”. In addition, in the test with TREU 667 procyclic forms [1] (15 µM orthovanadate (FIGURE 6B)), the “time until tyrosine phosphorylation was maximal” value is ≤ 2 h. Moreover, the “level of protein tyrosine phosphorylation of specific substrates, particularly ptp40 and ptp42” value with TREU 667 procyclic forms [1] (after 6 hours in orthovanadate (FIGURE 6A)) is listed as “increased dramatically”. The “time until tyrosine phosphorylation returned to near control levels” value in the test with TREU 667 procyclic forms [1] (after the drug was removed (cells grown in orthovanadate, rinsed free of drug)) was ≤ 24 h. Further, the “growth and motility of procyclic forms” value in test [3] (1.5 µM orthovanadate) is recorded as “nonmotile but continued to divide, albeit more slowly”. Further, in test [3] (procyclic forms, concentrations approaching those used to cause phenotypic transformation of mammalian cells (30 µM)), the toxicity to trypanosomes entry was “toxic”.
